Assay results taken from PMC3914206.

What was measured:
ERK5 [1] = target: T1, ERK5 (Homo sapiens, UniProt Q13164); experiment: ERK5 kinase activity in vitro assay (32P-ATP, PIMtide substrate); assay type: biochemical; set-up: hexahistidine (His6) (N); made in house; host or cells: Spodoptera frugiperda 21 cells (baculovirus, Bac-to-Bac); details: for IC50: in vitro assay, recombinant active ERK5, read-out: Enzymatic IC50 (ERK5)
Description: pFastBAC vector encoding N-terminal hexahistidine-tagged human ERK5 and HA-tagged human MEK5-DD (constitutively active) were used to generate recombinant baculovirus using the Bac-to-Bac system (Invitrogen). […] His-tagged ERK5 was purified as described for His-tagged BRSK1[33], using 5 mL Ni-NTA-agarose resin (Qiagen) followed by gel filtration chromatography on Superdex 200HR column on an AKTA system (GE Healthcare).
Assays were carried out for 20 min at 30 °C, terminated by applying the reaction mixture onto p81 paper and the incorporated radioactivity measured as described previously.

ERK5 [2] = target: T1, ERK5; experiment: ERK5 autophosphorylation assay (EGF-stimulated, mobility shift immunoblot); assay type: cell-based; set-up: endogenous in cells; host or cells: HeLa; details: inhibition of EGF-stimulated autophosphorylation of ERK5 in HeLa cells; read-out: Cellular EC50 (ERK5)
Excerpt: Proteins from total cell lysates were resolved by 6% sodium dodecyl sulfate (SDS)-poly-acrylamide gel electrophoresis (PAGE), transferred to nitrocellulose membrane, blocked in 5% nonfat milk, and blotted with anti-ERK5 antibody.

T1 sequence (Q13164 whole entry): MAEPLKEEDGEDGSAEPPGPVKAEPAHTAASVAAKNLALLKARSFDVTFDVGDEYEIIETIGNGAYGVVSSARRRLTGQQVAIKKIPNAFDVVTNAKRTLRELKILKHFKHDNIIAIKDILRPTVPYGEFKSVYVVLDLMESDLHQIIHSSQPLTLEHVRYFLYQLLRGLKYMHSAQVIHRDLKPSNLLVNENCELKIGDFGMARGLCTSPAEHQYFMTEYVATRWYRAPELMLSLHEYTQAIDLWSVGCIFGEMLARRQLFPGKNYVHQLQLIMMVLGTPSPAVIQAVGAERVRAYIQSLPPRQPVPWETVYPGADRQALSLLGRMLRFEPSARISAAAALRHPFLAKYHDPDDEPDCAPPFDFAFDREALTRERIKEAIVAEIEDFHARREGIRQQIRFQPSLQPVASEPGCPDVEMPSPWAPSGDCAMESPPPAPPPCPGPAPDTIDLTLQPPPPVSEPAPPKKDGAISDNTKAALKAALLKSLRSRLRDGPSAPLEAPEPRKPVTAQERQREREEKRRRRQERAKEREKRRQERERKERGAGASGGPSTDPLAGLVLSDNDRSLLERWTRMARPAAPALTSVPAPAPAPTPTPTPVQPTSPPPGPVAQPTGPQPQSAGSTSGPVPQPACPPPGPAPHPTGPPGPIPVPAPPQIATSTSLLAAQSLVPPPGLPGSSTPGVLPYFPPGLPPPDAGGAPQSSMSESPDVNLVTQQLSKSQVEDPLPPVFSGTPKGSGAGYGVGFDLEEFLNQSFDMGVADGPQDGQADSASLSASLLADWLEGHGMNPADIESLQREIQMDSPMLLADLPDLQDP

Row | SMILES | IC50 (ERK5 [1]) | EC50 (ERK5 [2]) | fold decrease in activity for ERK5 (ERK5 [1]; relative to compound 5)
1 | COc1cc(C(=O)NC2CCN(C)CC2)ccc1Nc1ncc2c(n1)N(C)c1ccccc1C(=O)N2C [Compound 14] | 338 ± 18 nM | 320 ± 50 nM | –
2 | COc1cc(N2CCN(C)CC2)ccc1Nc1ncc2c(n1)N(C)c1cc(Cl)ccc1C(=O)N2C [Compound 21] | 1130 ± 160 nM | 1240 ± 240 nM | –
3 | COc1cc(N2CCN(C)CC2)ccc1Nc1ncc2c(n1)N(C1CCCC1)c1ccccc1C(=O)N2C [Compound 19] | 146 ± 18 nM | 200 ± 40 nM | –
4 | COc1cc(N2CCN(C)CC2)ccc1Nc1ncc2c(n1)N(C)c1ccccc1C(=O)N2 [Compound 16] | 1450 ± 210 nM | > 1000 nM | 4 fold
5 | CN1CCC(Nc2ncc3c(n2)N(C)c2ccccc2C(=O)N3C)CC1 [Compound 10] | 1250 ± 151 nM | 4110 ± 590 nM | –
6 | COc1cc(N2CCN(C)CC2)ccc1Nc1ncc2c(n1)N(C)c1ccc(Cl)cc1C(=O)N2C [Compound 22] | 5090 ± 52 nM | 11400 ± 2040 nM | –
7 | COc1cc(N2CCN(C)CC2)ccc1Nc1ncc2c(n1)N(C)c1ccc(F)cc1C(=O)N2C [Compound 20] | 873 ± 60 nM | 1320 ± 220 nM | –
8 | COc1cc(NCCN(C)C)ccc1Nc1ncc2c(n1)N(C)c1ccccc1C(=O)N2C [Compound 13] | 140 ± 9 nM | 240 ± 30 nM | –
9 | COc1cc(N2CCN(C)CC2)ccc1Nc1ncc2c(n1)N(C)c1cc(C)ccc1C(=O)N2C [Compound 23] | 2460 ± 260 nM | 3100 ± 620 nM | –
10 | CCN1c2ccccc2C(=O)N(C)c2cnc(Nc3ccc(N4CCN(C)CC4)cc3OC)nc21 [Compound 17] | 66 ± 7 nM | 200 ± 40 nM | –
11 | CC(C)Oc1cc(N2CCC(O)CC2)ccc1Nc1ncc2c(n1)N(C)c1ccccc1C(=O)N2C [Compound 12] | 1530 ± 172 nM | > 500 nM | –
12 | COc1cc(N2CCOCC2)ccc1Nc1ncc2c(n1)N(C)c1ccccc1C(=O)N2C [Compound 7] | 233 ± 19 nM | 260 ± 30 nM | –
13 | COc1cc(N2CCC(O)CC2)ccc1Nc1ncc2c(n1)N(C)c1ccccc1C(=O)N2C [Compound 6] | 297 ± 14 nM | 240 ± 40 nM | –
14 | CN1C(=O)c2ccccc2N(C)c2nc(NCCc3cnc[nH]3)ncc21 [Compound 9] | 1720 ± 221 nM | 4680 ± 520 nM | –
15 | CN1C(=O)c2ccccc2N(C)c2nc(Nc3ccc(S(N)(=O)=O)cc3)ncc21 [Compound 8] | 171 ± 16 nM | 310 ± 60 nM | –
16 | COc1cc(N2CCN(C)CC2)ccc1Nc1ncc2c(n1)N(C(C)C)c1ccccc1C(=O)N2C [Compound 18] | 98 ± 12 nM | 230 ± 30 nM | –
